# From patent US12414948B2, “Methods” (INTRA-CELLULAR THERAPIES, INC., priority 2022, dated 2025)
# Columns and labels:
# [1] = test system: hippocampal mRNA (Il1b, Il6, Tnfa, Il10, Icam1, Cldn5, Csf1); experiment: Hippocampal mRNA (qRT-PCR), delayed injection of lumateperone 30 minutes after LPS; assay type: in vivo, mouse; conditions: for Hippocampal mRNA expression (delayed injection) Cldn5 / Hippocampal mRNA expression (delayed injection) Csf1 / Hippocampal mRNA expression (delayed injection) Icam1: normalized to control
# Method: All other reagents are obtained in the highest purity available from Sigma-Aldrich (St. Louis, MO) unless otherwise noted. […] Some rodents are given a cotreatment with a subcutaneous (SC) injection of lipopolysaccharide (LPS, 500 μg/kg; Sigma-Aldrich, ref #0127:B8) diluted in 0.9% injectable saline while control group animals receive injections of all vehicles matching the experimental conditions. […] On day 2, either no injection for naïve rats, or saline or LPS is injected (1 mg/kg, SC).
# Quantitative Real-Time PCR. Mouse hippocampal tissue is homogenized with glass beads in 1 mL of TRIzol reagent using a BeadBeater (Biospec Products, Bartlesville, OK). Heavy phase-lock gel tubes enabled separation of phases following the addition of 400 μL chloroform to the sample and centrifugation at 12,000 rpm for 10 minutes at room temperature. RNA is extracted using Qiagen Rneasy kit (Qiagen, Hilden, Germany). For cDNA synthesis, 2 μg of total RNA is used (SuperScript IV Reverse Transcriptase; ThermoFisher Scientific, Waltham, MA). […] In the hippocampus, 4 key markers of pro- and anti-inflammatory cytokines and chemokines (Il1b: ID Mm00434228_m1, Tnfa: ID Mm00443258_m1, 116: ID Mm00446190_m1, and I110: ID Mm01288386_m1; ThermoFisher Scientific) are initially chosen for analysis (n=5-12 per group). In subsequent experiments, the transcripts for other markers of inflammation are chosen for analysis including Icam1 (ID Mm00516023_m1; a cell adhesion molecule involved in immune cell migration), Cldn5 (ID Mm00727012_s1; a tight junctions protein), colony stimulating factor 1 (Csf1: ID Mm00432686_m1; a factor that regulates microglia function) and its receptor Csf1r (ID Mm01266652_m1), and the nucleotide binding and oligomerization domain-like receptor family pyrin domain-containing 3 inflammasome complex (Nlrp3: Mm00840904_m1). Gapdh (ID Mm99999915_g1) is chosen as a housekeeping gene. QuantStudio 7 (ThermoFisher Scientific) is used for analyzing the plates (MicroAmp Optical 384-well plates; Applied Biosystems, Waltham, MA, and ThermoFisher Scientific) that are loaded with TaqMan Universal Master Mix II without uracil-DNA glycosylate in a 20 μl reaction volume using 100 ng cDNA per well. All mRNAs are measured by qRT-PCR on ABI Prism 7900HT system using TaqMan Gene Expression Assays. Ct values of genes of interest are normalized to that of the reference gene (Gapdh).
# Samples are collected 1.5 hours later (i.e., 2 hours after LPS injection).
# Sprague-Dawley rats = experiment: Open Field Test (OFT), locomotion; assay type: in vivo, rat; conditions: for Open field track length: rats given LPS 1 mg/kg SC, label LPS = LPS + Vehicle, label Luma = Luma 1 mg/kg IP before and after LPS, text: open field track length in meters
# Method: Behavioral Evaluation. All behavioral tests are performed in the morning with adult male Sprague-Dawley rats (n=9-11 per group for the experiments with LPS, and n=13-14 per group for the naïve rats).
# Open Field Test (OFT). Rats are placed in an open field box (76.5×76.5×40 cm^3) under dim lighting and locomotor activity over a 10 minute period is measured using ANY-Maze Software (Stoelting Co., Wood Dale, IL).
# Locomotion in an open field (track length in meters) is also measured as a control. As shown in the following table, locomotor activity is […] regardless of the group: […]
# [2] = LPS 500 μg/kg SC-challenged mice, label LPS = LPS + vehicle, label Luma = Luma 3 mg/kg IP 30 min after LPS, 2 h after LPS
# [3] = LPS 500 μg/kg SC-challenged mice, label LPS = LPS + vehicle, label Luma = Luma 3 mg/kg IP 30 min after LPS, 2 h after LPS, normalized to control (Dct)
# [4] = mice, saline SC then Luma 3 mg/kg IP 30 min later (no LPS)
# [5] = mice, saline SC then Luma 3 mg/kg IP 30 min later (no LPS), samples 1.5 h later, normalized to control (Dct)
molecule,measurement,setting,value
"CN1CCN2c3c(cccc31)[C@@H]1CN(CCCC(=O)c3ccc(F)cc3)CC[C@@H]12 [Luma, lumateperone]",Hippocampal mRNA expression (delayed injection) Cldn5,[1]; [2],0.20
same,Hippocampal mRNA expression (delayed injection) Csf1,[1]; [2],−0.11
same,Hippocampal cytokine mRNA expression (delayed injection) IL-6,[1]; [3],−0.10
same,Hippocampal cytokine mRNA expression (delayed injection) TNF-alpha,[1]; [3],0.34
same,Hippocampal mRNA expression (delayed injection) Cldn5,[1]; [4],0.33
same,Hippocampal mRNA expression (delayed injection) Csf1,[1]; [4],0.05
same,Hippocampal mRNA expression (delayed injection) Icam1,[1]; [4],0.28
same,Hippocampal cytokine mRNA expression (delayed injection) IL-1b,[1]; [5],0.90
same,Hippocampal cytokine mRNA expression (delayed injection) IL-6,[1]; [5],−0.46
same,Hippocampal cytokine mRNA expression (delayed injection) TNF-alpha,[1]; [5],−0.31
same,OFT locomotion,"Sprague-Dawley rats; naïve rats, Luma 1 mg/kg IP on days 1 and 3, 10 minutes",32.8 ± 10.2 m
same,Open field track length,Sprague-Dawley rats,12.27
"lipopolysaccharide [LPS, reference compound]",Hippocampal mRNA expression (delayed injection) Cldn5,[1]; [2],−0.63
same,Hippocampal mRNA expression (delayed injection) Csf1,[1]; [2],0.41
same,Hippocampal mRNA expression (delayed injection) Icam1,[1]; [2],4.33
same,Hippocampal cytokine mRNA expression (delayed injection) IL-1b,[1]; [3],2.89
same,Hippocampal cytokine mRNA expression (delayed injection) IL-6,[1]; [3],1.10
same,Hippocampal cytokine mRNA expression (delayed injection) IL-10,[1]; [3],1.88
same,Hippocampal cytokine mRNA expression (delayed injection) TNF-alpha,[1]; [3],2.33
same,Open field track length,Sprague-Dawley rats,12.81
